Assay results published in article PMC6471559, “Design and Synthesis of a New Soluble Natural β-Carboline Derivative for Preclinical Study by Intravenous Injection” (International Journal of Molecular Sciences, 2019).
Entries after “also recorded” stand apart in the source; their conditions may differ. Where two headings read alike, the source gives them in different places.

What was measured:
[1] = Kinetic solubility by HPLC, Multiscreen Solubility Filter plate; format: physicochemical
Description: From those data, we chose an isopentyl substituent on position 7, which is suitable to decrease neurotoxicity of the targeted compound. We selected a propyl group on position 9 as a short alkyl substituent, seems to be suitable to maintain good antiproliferative properties. […] This high activity can result in low administered doses, thus counter-balancing the low LD50 associated with this N^2 substitution. […] It has been shown that pyridine scaffold in lead compounds can result in higher solubility because of the presence of the heteroatom. Finally, the pyridyl group offers good potential for salification and/or cocrystallization which can also improve pharmacological properties.
The kinetic solubility of compounds 1a and 1b was determined by HPLC method, using a Multiscreen Solubility Filter 96-well plate (Merck®) using a test adapted from. First, the calibration curve was performed from five solutions (3.13 µM 12.5 µM, 50 µM, 200 µM and 500 µM, with a final DMSO concentration of 5%). The kinetic solubility was measured in triplicate at physiological pH in phosphate buffer (0.05 M Na2HPO4; 0.02 M NaCl adjusted at physiological pH using solution NaH2PO4 0.05 M; NaCl 0.02 M) and in acidic condition (0.2 M HCl, 0.03 M NaCl adjusted at pH = 1.1 using HCl 37%). […]

[2] = Stability in three media by UV spectra from 0 h to 72 h at 37 °C; format: physicochemical; details: pH 1.1, pH 7.4 and simulated injection vehicle (0.9% NaCl, 0.1% Polysorbate 80)
Experimental: (§1) Compound 2 solubility and stability measurements were performed at 37 °C at pH 1.1 (0.02 M NaCl, pH 1.1 obtained by HCl addition) to mimic gastric conditions, at pH 7.4 (0.050 M Na2HPO4/NaH2PO4 and 0.02 M NaCl, pH 7.4) and simulated injection vehicle (0.9% NaCl and 0.1% Polysorbate 80). Stability measurements were performed from 0 h to 72 h after complete solubilization. […] At pH 1.1 as well as in the simulated injection vehicle, a higher solubility is observed in comparison with the solubility at physiological pH. Solubility is 1.06 ± 0.08 mg/mL at physiological pH, 1.62 ± 0.13 mg/mL at acidic pH, as well as 1.87 ± 0.07 mg/mL in a simulated vehicle injection (Table 1).
We have evaluated the stability of compound 2 in three different conditions (at pH 1.1, at pH 7.4 and in a simulated injection vehicle) for three days and at 37 °C because it is compatible with physiological temperature and because a higher temperature can result in a better solubilization. We observe that the compound remains stable for at least three days in the three different solutions tested, which allowed determination of its thermodynamic solubility. […]

[3] = Thermodynamic solubility by UV absorbance at 330 nm after 72 h stirring at 37 °C; format: physicochemical; details: thermodynamic from solid
Experimental: as §1
Solubility of compound 2 was evaluated at 37 °C, at pH 1.1 (0.02 M NaCl, pH 1.1 obtained by HCl addition), at physiological pH (buffer 0.050 M Na2HPO4/NaH2PO4 and 0.02 M NaCl, pH 7.4) as well as in a simulated injection vehicle (0.9% NaCl and 0.1% Polysorbate 80 pH 7.4). To this aim, an excess of compound 2 was placed in the […] media in a 24 well plate and stirred (1200 rpm) 72 h at 37 °C after hermetic sealing. After 72 h of stirring, the solutions were filtered (0.2 µm) and diluted 100 times. The solubility was determined by UV absorbance at 330 nm using a calibration curve (five points in a range of concentration between 0.005 and 0.1 mg/mL). All measurements were made in triplicate and adequate dissolutions were performed to stay in Beer-Lambert conditions.

[4] = tested on: MCF-10a human non-tumorigenic breast epithelial cells; assay: MTT cytotoxicity on normal cells vs. cancer cells; format: cell-based; details: in the IC50 concentration range
Experimental: (§2) Antiproliferative activity of compound 2 was evaluated using a colorimetric MTT assay for 72 h. […] Compound 2 activity was studied on different cancer cell lines: two glioma cell lines (T98G, Hs683), one breast cancer cell line (MDA-MB-231), one lung cancer cell line (A549) and one pancreatic cell line (PANC-1). A mean submicromolar antiproliferative activity was observed (Table 2). […] Cytotoxicity of compound 2 against normal cells (epithelial breast cells MCF-10a) vs. cancer cells (MDA-MB-231) was also determined. […] Antiproliferative activity and overall cytotoxicity of compound 2 on cancer and normal cells lines (breast cancer cell line MDA-MB231 and non-tumorigenic breast epithelial cells (MCF-10a) were determined in vitro using colorimetric MTT (Sigma-Aldrich (Schnelldorf, Germany)) solution (0.5 mg/mL in PBS) assay according to a protocol adapted from. Cells were seeded in 96-well culture plate (1200 cells/well 1 day before incubation and were treated for 72 h in culture medium at 37 °C with different concentrations of compound 2 ranging from 1 nM to 10 μM, with semilog concentration increasing of the compound. […] Then, blue formazan was solubilized with DMSO and absorbance at 570 nm, which is directly proportional to the number of metabolic active cells, is determined. […]

[5] = tested on: A549, MDA-MB-231, PANC-1, T98G and Hs683 cell lines; assay: MTT antiproliferative assay, 72 h, summary over five cancer cell lines; format: cell-based; details: Homo sapiens, A549, MDA-MB-231, PANC-1, T98G and Hs683, MTT, read-out: IC50 range over five cancer cell lines
Experimental: as §2

[6] = tested on: MDA-MB-231 human breast cancer cells; assay: MTT antiproliferative assay, 72 h; format: cell-based
Experimental: (§3) Antiproliferative activity of compound 2 was evaluated using a colorimetric MTT assay for 72 h. […] Compound 2 activity was studied on different cancer cell lines: two glioma cell lines (T98G, Hs683), one breast cancer cell line (MDA-MB-231), one lung cancer cell line (A549) and one pancreatic cell line (PANC-1). A mean submicromolar antiproliferative activity was observed (Table 2). […] Cytotoxicity of compound 2 against normal cells (epithelial breast cells MCF-10a) vs. cancer cells (MDA-MB-231) was also determined. […] MDA-MB-231 human breast cancer cells, T98G human brain cancer cells and PANC-1 human epithelioid carcinoma were maintained in culture in 75-cm^2 polystyrene flasks (Corning®, […], Luxembourg) with respectively 15 mL of Dulbecco's modified Eagle's medium (#341966-029 DMEM 1X; ThermoFisher, Gibco®, Geel, Belgium) containing 4.5g/L of glucose, 10% of fetal calf serum (#10270 ThermoFisher, Gibco®, Geel, Belgium) and supplemented with penicillin-streptomycin 10,000 U/mL (#15140 ThermoFisher, Gibco®, Geel, Belgium) incubated under an atmosphere containing 5% CO2. HS683 human glioma and A549 human lung carcinoma were maintained in culture in 75-cm^2 polystyrene flasks (Corning®) with respectively 15 mL of Roswell Park Memorial Institute medium (Gibco® RPMI 1640, Thermofisher, Geel, Belgium) containing 10% of fetal calf serum (#10270 ThermoFisher, Gibco®, Geel, Belgium) and supplemented with penicillin-streptomycin 10,000 U/mL (#15140 ThermoFisher, Gibco®, Geel, Belgium), glutamine (200 mM) and HEPES (25 mM) incubated under an atmosphere containing 5% CO2. MCF-10-a human non-tumorigenic breast epithelial cells were maintained in 75-cm^2 polystyrene flasks (Corning®, […], Luxembourg) with 15 mL of Gibco®, Geel, Belgium) F-12 Nutrient Mixture (Ham) containing 5% of horse serum (Invitrogen®) supplemented with 10 μg/mL of human Insulin (Sigma®, Schnelldorf, Germany), 0.5 μ/mL of Hydrocortisone (Sigma®, Schnelldorf, Germany) and 20 ng/mL of Epidermal Growth Factor (Peprotech®, London, UK) incubated under an atmosphere containing 5% CO2. The cell lines were obtained from the American Type Culture Collection (ATCC, Manassas, VA). Antiproliferative activity and overall cytotoxicity of compound 2 on cancer and normal cells lines (breast cancer cell line MDA-MB231 and non-tumorigenic breast epithelial cells (MCF-10a) were determined in vitro using colorimetric MTT (Sigma-Aldrich (Schnelldorf, Germany)) solution (0.5 mg/mL in PBS) assay according to a protocol adapted from. Cells were seeded in 96-well culture plate (1200 cells/well 1 day before incubation and were treated for 72 h in culture medium at 37 °C with different concentrations of compound 2 ranging from 1 nM to 10 μM, with semilog concentration increasing of the compound. The yellow MTT product was converted to a purple formazan derivative through mitochondrial enzymatic reduction. At the end of the incubation of 4 h, the plate was centrifugated at 1200 rpm for 5 min and the MTT solution was decanted. Then, blue formazan was solubilized with DMSO and absorbance at 570 nm, which is directly proportional to the number of metabolic active cells, is determined. Experiments were carried out in sextuplicates.

[7] = tested on: T98G human brain cancer cells; assay: MTT antiproliferative assay, 72 h; format: cell-based
Experimental: as §3

[8] = tested on: A549 human lung carcinoma cells; assay: MTT antiproliferative assay, 72 h; format: cell-based
Experimental: as §3

Hs683 human glioma cells = assay: MTT antiproliferative assay, 72 h; format: cell-based
Experimental: as §3

[9] = tested on: PANC-1 human epithelioid carcinoma cells; assay: MTT antiproliferative assay, 72 h; format: cell-based
Experimental: as §3

Cc1nccc2c1[nH]c1cc(OCCC(C)C)ccc12 [1a, 1-methyl-7-(3-methylbutoxy)-9H-pyrido[3,4-b]indole]
Kinetic solubility at low pH ([1]; pH 1.1): good solubility at low pH

CCCn1c2cc(OCCC(C)C)ccc2c2ccnc(C)c21 [1b, 1-methyl-7-(3-methylbutoxy)-9-propyl-9H-pyrido[3,4-b]indole]
Kinetic solubility at low pH ([1]; acidic condition pH 1.1, 5% DMSO, preliminary data, values only in Figure 2B): good solubility at low pH

CCCn1c2cc(OCCC(C)C)ccc2c2cc[n+](Cc3ccccn3)c(C)c21.[Br-] [compound 2, 1-methyl-7-(3-methylbutoxy)-9-propyl-2-[(pyridin-2-yl)methyl]-9H-pyrido[3,4-b]indol-2-ium bromide]
Time for which the compound is stable (no modification of UV spectra) [2]: at least 72 h | solubility thermodynamic at 72 h ([3]; 0.02 M NaCl solution acidified with HCl, pH 1.1, simulated gastric fluid, pH 1.1 (0.02 M NaCl, HCl), read-out: Mean thermodynamic solubility at 37 °C): 1620 ± 130 µg/mL | solubility thermodynamic at 72 h ([3]; 0.02 M NaCl solution acidified with HCl, pH 1.1, simulated gastric fluid, pH 1.1 (0.02 M NaCl, HCl), read-out: Thermodynamic solubility at 37 °C replicate 1): 1460 ± 10 µg/mL | solubility thermodynamic at 72 h ([3]; 0.02 M NaCl solution acidified with HCl, pH 1.1, simulated gastric fluid, pH 1.1 (0.02 M NaCl, HCl), read-out: Thermodynamic solubility at 37 °C replicate 2): 1630 ± 20 µg/mL | solubility thermodynamic at 72 h ([3]; 0.02 M NaCl solution acidified with HCl, pH 1.1, simulated gastric fluid, pH 1.1 (0.02 M NaCl, HCl), read-out: Thermodynamic solubility at 37 °C replicate 3): 1770 ± 10 µg/mL | solubility thermodynamic at 72 h ([3]; phosphate buffer, pH 7.4, aqueous buffer, pH 7.4 phosphate buffer, read-out: Mean thermodynamic solubility at 37 °C): 1060 ± 80 µg/mL | solubility thermodynamic at 72 h ([3]; phosphate buffer, pH 7.4, aqueous buffer, pH 7.4 phosphate buffer, read-out: Thermodynamic solubility at 37 °C replicate 1): 980 ± 10 µg/mL | solubility thermodynamic at 72 h ([3]; phosphate buffer, pH 7.4, aqueous buffer, pH 7.4 phosphate buffer, read-out: Thermodynamic solubility at 37 °C replicate 2): 990 ± 10 µg/mL | solubility thermodynamic at 72 h ([3]; phosphate buffer, pH 7.4, aqueous buffer, pH 7.4 phosphate buffer, read-out: Thermodynamic solubility at 37 °C replicate 3): 1150 ± 10 µg/mL | solubility thermodynamic at 72 h ([3]; simulated injection vehicle, pH 7.4, aqueous with cosolvent or surfactant or cyclodextrin, injection vehicle (0.9% NaCl and 0.1% Polysorbate 80), read-out: Mean thermodynamic solubility at 37 °C): 1870 ± 70 µg/mL | solubility thermodynamic at 72 h ([3]; simulated injection vehicle, pH 7.4, aqueous with cosolvent or surfactant or cyclodextrin, injection vehicle (0.9% NaCl and 0.1% Polysorbate 80), read-out: Thermodynamic solubility at 37 °C replicate 1): 1950 ± 10 µg/mL | solubility thermodynamic at 72 h ([3]; simulated injection vehicle, pH 7.4, aqueous with cosolvent or surfactant or cyclodextrin, injection vehicle (0.9% NaCl and 0.1% Polysorbate 80), read-out: Thermodynamic solubility at 37 °C replicate 2): 1900 ± 40 µg/mL | solubility thermodynamic at 72 h ([3]; simulated injection vehicle, pH 7.4, aqueous with cosolvent or surfactant or cyclodextrin, injection vehicle (0.9% NaCl and 0.1% Polysorbate 80), read-out: Thermodynamic solubility at 37 °C replicate 3): 1770 ± 10 µg/mL | Activity on normal cells (MCF-10a) vs. cancer cells (MDA-MB-231) [4]: more active on a cancer cell line than on normal cells | Activity on normal cells (MCF-10a) vs. cancer cells (MDA-MB-231) ([4]; listed as 1-methyl-7-(3-methylbutoxy)-9-propyl-2-[(pyridin-2-yl)methyl]-9H-pyrido[3,4-b]in): more active on cancer cells (MDA-MB-231) than on normal cells (MCF-10a) | IC50 [5]: 200 to 2000 nM | IC50 ([6]; Homo sapiens, MDA-MB-231, MTT, 72 h): 449 nM | Cytostatic at IC50 ([6]; MDA-MB-231, metabolic activity at IC50 compared with T = 0 h): cytostatic behavior; also recorded: cytostatic effect | IC50 ([7]; Homo sapiens, MTT, 72 h): 2190 nM | Cytostatic at IC50 ([7]; metabolic activity at IC50 compared with T = 0 h): No | Cytostatic at IC50 ([8]; A549, metabolic activity at IC50 compared with T = 0 h): cytostatic behavior; also recorded: cytostatic effect | IC50 ([8]; Homo sapiens, A549, MTT, 72 h): 261 nM | IC50 (Hs683 human glioma cells): 305 nM | IC50 (Hs683 human glioma cells; Homo sapiens, Hs 683, 72 h): < 500 nM | IC50 ([9]; Homo sapiens, PANC-1, MTT, 72 h): 350 nM | Cytostatic at IC50 ([9]; PANC-1, metabolic activity at IC50 compared with T = 0 h): No
